The values below come from US9393181B2, “Dental materials with improved hydrolysis stability based on phthalic acid monomers” (Ivoclar Vivadent AG, priority 2011, dated 2016).

The nature of series [1]: Hydrolysis stability of AAUPA in acidic solution, followed by 1H-NMR. Conditions: 5% AAUPA, 200 ppm BHT, 5% phosphoric acid d3, 10% D2O, 80% DMSO-d6; stored at 37° C., standing time 12 weeks. Type of series: physicochemical. As for the experimental part:
A solution of 5% of the phthalic acid acrylamide AAUPA stabilized with 200 ppm 2,6-di-t-butyl-4-methylphenol, 5% phosphoric acid d3, 10% D2O and 80% DMSO-d6 was prepared, was stored at 37° C. and examined spectroscopically with ^1H-NMR. After a standing time of 12 weeks, no changes were able to be established in the ^1H-NMR spectrum.

The nature of a further series: Solubility in solvents. It is filed as physicochemical. The following applies: e.g. in ethanol or acetone. As for the experimental part:
Furthermore compositions which contain water as solvent (f) are preferred. The solubility of the phthalic acid derivatives of the Formula (I) in polar solvents is good.
4-hydroxyphthalic anhydride (6.70 g; 40.8 mmol), BHT (10 mg) and N-(11-bromoundecyl)-N-methyl acrylamide (13.00 g; 40.8 mmol) were dissolved in N,N-dimethylformamide (100 ml). Potassium carbonate (5.64 g; 40.8 mmol) was added. The yellow suspension was stirred at RT. Water (200 ml) was added to the reaction mixture after 20 d and the whole stirred for 1 h at RT. An oily white solid precipitated from the initially cloudy solution. The solvent was decanted off. The residue was dissolved in dilute aqueous Na2CO3 solution (5%; 100 ml). The milky/cloudy aqueous phase was washed with MtBE (5×100 ml). Diluted hydrochloric acid (2N, 100 ml) was added to the water phase (pH=1) and extraction with MtBE (8×100 ml) took place. The combined extracts were dried over Na2SO4, filtered and concentrated on the rotary evaporator. Chloroform (150 ml) was added to the residue and the whole stirred at RT. After 20 h the suspension was filtered. The filtration residue was washed with chloroform (50 ml) and discarded. The filtrate was concentrated on the rotary evaporator. The residue was dissolved in chloroform (50 ml). Acetonitrile (50 ml) was added. After 72 h storage at −18° C. the solvent was decanted off and the residue dried under a fine vacuum.

The conditions of series [2]: in aqueous solutions; cited from earlier work.

Each structure is given as a SMILES string.

Turning to `C=CC(=O)N(C)CCCCCCCCCCCOc1ccc(C(=O)O)c(C(=O)O)c1` [AAUPA, 4-[11-(acryloyl-methyl-amino)-undecyloxy]phthalic acid], in series [1], the “changes in the 1H-NMR spectrum (hydrolysis stability)” value is on record as “no changes”. Moreover, in the series “Solubility in solvents”, the solubility entry was “dissolves very well”.

Take `C=C(C)C(=O)OCCOC(=O)c1ccc2c(c1)C(=O)OC2=O` [Example 4-META]: in series [2], the “hydrolysis to 4-MET” value is recorded as “very quickly hydrolyzed”.
